Columns and labels:
GLUT5S72Y = molecular target: T1, GLUT5S72Y (Homo sapiens, UniProt P22732, S72Y); experiment: Fructose transport assay, GLUT5S72Y expressed in hxt^0 yeast cells EBY.VW4000; type: cell-based; details: GLUT5S72Y in hxt^0 yeast cells, 10 mM fructose; read-out: IC50 for GLUT5 transport inhibition
T1 construct: expressed in transfected cells; host or cells: Saccharomyces cerevisiae hxt0 strain EBY.VW4000
T1 sequence (P22732 1-501 S72Y): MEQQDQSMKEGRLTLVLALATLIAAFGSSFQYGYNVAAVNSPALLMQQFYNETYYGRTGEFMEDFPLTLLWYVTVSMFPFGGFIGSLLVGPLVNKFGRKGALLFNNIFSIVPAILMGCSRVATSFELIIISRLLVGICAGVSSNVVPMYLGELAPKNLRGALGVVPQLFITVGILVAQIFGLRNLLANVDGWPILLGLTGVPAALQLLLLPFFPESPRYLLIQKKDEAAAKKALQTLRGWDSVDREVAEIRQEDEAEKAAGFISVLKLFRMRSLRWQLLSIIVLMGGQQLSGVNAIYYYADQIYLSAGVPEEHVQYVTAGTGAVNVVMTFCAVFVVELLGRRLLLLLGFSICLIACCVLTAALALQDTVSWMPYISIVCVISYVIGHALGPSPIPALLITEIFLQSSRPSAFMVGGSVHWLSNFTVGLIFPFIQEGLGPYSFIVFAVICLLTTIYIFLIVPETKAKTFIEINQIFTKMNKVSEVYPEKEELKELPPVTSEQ
Text: (§1) The most studied GLUTs are Class 1 GLUTs (GLUT1-4) and a Class 2 GLUT, GLUT5 (a fructose-only transporter). GLUT3 sequence homology and identity is 79% and 64%, 71% and 52%, 74% and 57%, and 60% and 38% with GLUT1, GLUT2, GLUT4, and GLUT5, respectively. The hxt^0 yeast cell systems expressing functional GLUT1-4[65],[69] and GLUT5[66] allow us to determine the in vivo transport activity (substrate uptake by a GLUT into whole cells) for individual GLUTs and establish GLUT3 inhibitor selectivity for these transporters. […] Given the higher sequence similarity within Class 1 GLUTs, we expected GLUT3 inhibitors to affect Class 1 GLUTs much more than GLUT5. Indeed, G3iA-G3iF reduced the transport activities of some of the other Class 1 GLUTs (Fig. 3A–C, Table 2, Supplementary Fig. S6). […] For example, G3iB was an equipotent inhibitor of GLUT4, while G3iD and G3iE inhibited GLUT1 in a similar manner to GLUT3. […] Moreover, G3iD affected all Class 1 GLUTs, having the best relative selectivity for GLUT4.
(§2) Figure 3 Effect of GLUT3 inhibitors on GLUT1, GLUT2, GLUT4, and GLUT5. The transport activity was assayed as the substrate uptake in hexose transporter-deficient yeast cells expressing functional GLUT1[65], GLUT2[69], GLUT4[65], or GLUT5[66]. […] Transport assay was initiated by the addition of C^14-labeled substrate and stopped after 10 min (see “Materials and methods” for details). (A–D) Effect of G3iA-G3iF, at 50 µM concentration, on the relative transport activities of GLUT1 (A), GLUT2 (B), GLUT4 (C), and GLUT5 (D). Standard deviations for experimental points come from at least three independent measurements.
(§3) The plasmids containing functional constructs of GLUT1-5 were transformed in the corresponding hxt^0 strains[65],[66],[73] (EBY.VW4000 for GLUT5S72Y, EBY.S7 for GLUT1, GLUT2∆loopS_Q455R, GLUT3 and GLUT3S66Y, and SDY.022 for GLUT4) and grown on 2% (w/v) agar plates of the respective media supplemented with 1% (w/v) maltose. An initial culture of ~ 10 ml was started with a few colonies and grown for 2–3 days if the media was SC-uracil with 1% (w/v) maltose (GLUT1, GLUT3, GLUT4) or 1–2 days if the media was YEP with 1% (w/v) maltose and 100 µg/ml geneticin G418 (GLUT2∆loopS_Q455R and GLUT5S72Y). […] Then, cells were transferred in the same media so that OD600nm ~ 0.5 and grown further for 1–2 days.
(§4) For transport activity assay, cells in the hexose media were centrifuged (1000×g, 5 min, room temperature), washed once with PBS buffer (10 mM Na2HPO4, 1.8 mM KH2PO4, 2.7 mM KCl, 137 mM NaCl, pH 7.4), and resuspended in PBS buffer at an OD600nm ~ 10; each assay contained 100 µl of this cell solution. […] Substrate uptake into cells was linear for more than 20 min. […] The filtration membranes were transferred into scintillation vials with 10 ml of Scintillation Solution (BioSafeII; Research Products International, Mount Prospect, IL, USA), and vortexed briefly. The radioactivity was determined with a scintillation counter (Tri-carb 2900TR, Perkin Elmer, USA). As all compounds were solubilized in dimethyl sulfoxide (DMSO), controls for determining the relative transport activity included 1% (v/v) DMSO to represent DMSO used as vehicle control (i.e., 100% activity), and known inhibitors at saturating concentrations, 200 µM phloretin for GLUT1-4[69],[82], and 100 µM N-[4-(methylsulfonyl)-2-nitrophenyl]-1,3-benzodioxol-5-amine (MSNBA) for GLUT5 (i.e., complete inhibition). […] Data were analyzed with GraphPad Prism (San Diego, CA, USA).

GLUT1 = molecular target: T2, GLUT1 (Homo sapiens, UniProt P11166); experiment: Glucose transport assay, GLUT1 expressed in hxt^0 yeast cells EBY.S7; type: cell-based; details: read-out: IC50 for GLUT1 transport inhibition
T2 construct: expressed in transfected cells; host or cells: Saccharomyces cerevisiae hxt0 strain EBY.S7 (fgy1)
T2 sequence (P11166 1-492): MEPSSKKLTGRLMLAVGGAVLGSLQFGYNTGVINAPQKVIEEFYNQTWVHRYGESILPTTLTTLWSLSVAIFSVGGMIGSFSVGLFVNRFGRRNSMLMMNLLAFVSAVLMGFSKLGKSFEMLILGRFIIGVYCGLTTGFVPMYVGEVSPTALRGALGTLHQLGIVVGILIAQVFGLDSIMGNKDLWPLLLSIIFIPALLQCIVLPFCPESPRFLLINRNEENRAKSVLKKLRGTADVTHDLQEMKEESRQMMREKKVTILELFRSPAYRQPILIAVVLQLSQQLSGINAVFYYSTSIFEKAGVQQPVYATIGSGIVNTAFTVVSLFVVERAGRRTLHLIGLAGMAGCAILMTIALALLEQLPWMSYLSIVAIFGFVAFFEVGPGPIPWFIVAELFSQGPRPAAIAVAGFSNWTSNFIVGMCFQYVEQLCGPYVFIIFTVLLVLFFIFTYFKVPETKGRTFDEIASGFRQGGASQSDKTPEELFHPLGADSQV
Text: as §1, §2, §3, §4
Supplementary Figure S6. Dose response curves for GLUT3 inhibitors on the transport activities of GLUT1, GLUT2, and GLUT4 in hxt^0 yeast cells. Dose response curves for GLUT3 inhibitors in GLUT1 (top row), GLUT2 (middle row), and GLUT4 (bottom row). […] Error bars represent standard deviations from at least three independent measurements. Graphs, data analysis, and IC50 values were generated with GraphPad (www.graphpad.com).

COc1ccccc1-n1c(/C=C/c2ccc(O)cc2)nc2ccc(Br)cc2c1=O [G3iB, 6-bromo-2-[(E)-2-(4-hydroxyphenyl)ethenyl]-3-(2-methoxyphenyl)quinazolin-4(3H)-one]
IC50 (GLUT5S72Y): > 50 µM
IC50 (GLUT1): 25 ± 8.6 µM

Cc1cc(NC(=O)CCC2Cc3ccccc3NC2=O)nc(-c2ccccc2)n1 (stereo not drawn) [G3iD]
IC50 (GLUT5S72Y): > 50 µM
IC50 (GLUT1): 17.7 ± 2.3 µM

O=C(Nc1cccc(Cl)c1)c1cccc(NC(=O)c2cccc([N+](=O)[O-])c2)c1 [G3iE, N-{3-[(3-chloroanilino)carbonyl]phenyl}-3-nitrobenzamide]
IC50 (GLUT5S72Y): > 50 µM
IC50 (GLUT1): 22.4 ± 3.7 µM

Cc1ccccc1CN(Cc1nnc(C(C)(C)C)o1)c1ccc2nc(O)[nH]c2c1 [G3iF]
IC50 (GLUT5S72Y): > 50 µM
IC50 (GLUT1): > 50 µM

Cc1cccnc1OC1CCN(c2cc(N3CCCC3CO)ncn2)CC1 (stereo not drawn) [G3iC]
IC50 (GLUT5S72Y): > 50 µM
IC50 (GLUT1): 49.4 ± 6.7 µM

CC(=O)Nc1ccc(S(=O)(=O)Nc2ccc(Nc3cc(N(C)C)nc(C)n3)cc2)cc1 [G3iA, N-(4-{[(4-{[6-(dimethylamino)-2-methylpyrimidin-4-yl]amino}phenyl)amino]sulfonyl}phenyl)acetamide]
IC50 (GLUT5S72Y): > 50 µM
IC50 (GLUT1): > 50 µM
